System: silver scurf (Helminthosporium solani)
Test: Silver scurf coverage on Roseval potatoes after three months storage
Assay type: in vivo
Details: three months storage at 8° C., thermal fogging
Experimental: Roseval potatoes were treated by thermal fogging with mint oil at 90 g/tonne, or with 67-72 g/tonne of L-carvone, then three times at 30 g/tonne, or 22.5-24 g/tonne of L-carvone, at 21-day intervals. They were then stored for three months at 8° C. The silver scurf coverage rates were measured on the batches treated with L-carvone and on the controls treated by thermal fogging with CIPC at 200 g/L at a dose of 60 ml/tonne for the first application then at 40 ml/tonne for the subsequent applications.

| Structure (SMILES) | Coverage 5-75% (%) Class 4 | Coverage 6-25% (%) Class 2 | Coverage 26-50% (%) Class 3 | Coverage >75% (%) Class 5 | Coverage ≦5% (%) Class 1 | Silver scurf index (0-100) | Undamaged tubers (%) Class 0 |
| --- | --- | --- | --- | --- | --- | --- | --- |
| CC(C)OC(=O)Nc1cccc(Cl)c1 [Thermo reference] | 0.7% | 7.7 a % | 3.9 a % | 1.5% | 26.2% | 5.7 a | 60.2 b % |
| C=C(C)C1CC=C(C)C(=O)C1 [L-carvone, 2-methyl-5-(1-methylethenyl)-2-cyclohexen-1-one] | 0.0% | 0.0 b % | 0.0 b % | 0.0% | 28.5% | 0.8 b | 71.5 a % |
